# According to patent US20070249670A1, “Glycogen Phosphorylase Inhibitor Compounds and Pharmaceutical Compositions Thereof” (SMITHKLINE BEECHAM CORPORATION, priority 2004, published 2007):
# Where a name gives a salt, the structure may show the parent alone.
# Molecular target: T1, human liver glycogen phosphorylase a (HLGPa) (Homo sapiens, UniProt P06737)
# T1 construct: creating a full-length cDNA fused at the 5′ end to codons for methionine-glycine-alanine-histidine; 6xHis tag (leader Met-Gly-Ala-His6-Gly-Gly) (N); made in house; host or cells: E. coli (bacterial expression plasmid pTXK1007LTev)
# T1 sequence (P06737 2-847 limits assumed): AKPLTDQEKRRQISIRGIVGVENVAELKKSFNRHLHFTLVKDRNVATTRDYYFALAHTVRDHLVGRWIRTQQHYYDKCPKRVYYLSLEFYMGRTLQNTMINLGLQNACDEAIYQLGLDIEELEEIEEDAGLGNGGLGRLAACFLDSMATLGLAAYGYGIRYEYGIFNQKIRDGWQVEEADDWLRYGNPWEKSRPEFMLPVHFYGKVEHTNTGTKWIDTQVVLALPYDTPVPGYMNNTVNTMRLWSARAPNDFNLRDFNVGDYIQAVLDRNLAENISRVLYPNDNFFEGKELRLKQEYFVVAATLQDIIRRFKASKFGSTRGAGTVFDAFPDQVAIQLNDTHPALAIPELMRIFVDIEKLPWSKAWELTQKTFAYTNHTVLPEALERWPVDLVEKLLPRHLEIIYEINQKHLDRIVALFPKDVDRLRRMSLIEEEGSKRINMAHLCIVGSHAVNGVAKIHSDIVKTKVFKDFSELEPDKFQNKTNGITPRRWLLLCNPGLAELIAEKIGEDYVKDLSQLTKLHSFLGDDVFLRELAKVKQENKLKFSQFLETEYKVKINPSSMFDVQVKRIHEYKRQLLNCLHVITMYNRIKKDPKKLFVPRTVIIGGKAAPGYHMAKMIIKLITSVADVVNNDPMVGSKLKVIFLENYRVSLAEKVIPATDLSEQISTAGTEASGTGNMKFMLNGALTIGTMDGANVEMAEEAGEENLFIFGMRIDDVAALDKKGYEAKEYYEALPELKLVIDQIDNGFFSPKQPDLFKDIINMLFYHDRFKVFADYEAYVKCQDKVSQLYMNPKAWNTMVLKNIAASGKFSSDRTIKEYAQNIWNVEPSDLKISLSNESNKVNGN
# Assay: Human liver glycogen phosphorylase a enzymatic activity assay (coupled, fluorescent resorufin readout, with and without 10 mM glucose)
# Assay type: biochemical
# Settings: human liver glycogen phosphorylase a enzymatic activity assay
row,IC50,Structure (SMILES)
1,96 nM,"O=C(Nc1sc(-c2ccc(OC(F)(F)F)cc2)cc1C(=O)N[C@H](C(=O)O)C1CCCCC1)Nc1c(Cl)cc(OC(F)(F)F)cc1Cl [Example 429, (2S)-cyclohexyl{[(2-{[({2,6-dichloro-4-[(trifluoromethyl)oxy]phenyl}amino)carbonyl]amino}-5-{4-[(trifluoromethyl)oxy]phenyl}-3-thienyl)carbonyl]amino}ethanoic acid]"
2,19 nM,Cc1cc(C2CC2)cc(C)c1NC(=O)Nc1c(C(=O)N[C@H](C(=O)O)C2CCCCC2)ccc2ccccc12 [Example 531]
3,6580 nM,"Cc1cccc(Cl)c1NC(=O)Nc1cc(F)c(F)cc1C(=O)N[C@@H](Cc1c[nH]c2ccccc12)C(=O)O [Example 74, N-[2-({[(2-chloro-6-methylphenyl)amino]carbonyl}amino)-4,5-difluorobenzoyl]-L-tryptophan trifluoroacetate]"
4,1480 nM,"Cc1cccc(C)c1NC(=O)Nc1cc2ccccc2cc1C(=O)N[C@@H](C)C(=O)O [Example 18, N-[3-({[(2,6-dimethylphenyl)amino]carbonyl}amino)-2-naphthoyl]-L-alanine]"
5,14700 nM,"COc1cc(NC(=O)Nc2c(C)cccc2C)c(C(=O)N[C@H](C(=O)O)C2CCCCC2)cc1OC [Example 117, (2S)-cyclohexyl{[2-({[(2,6-dimethylphenyl)amino]carbonyl}amino)-4,5-dimethoxybenzoyl]amino}acetic acid]"
6,3 nM,"Cc1cc(C)c(NC(=O)Nc2cc(-c3ccccc3)ccc2C(=O)N[C@H](C(=O)O)[C@@H](C)OC(C)(C)C)c(C)c1 [Example 528, O-(1,1-Dimethylethyl)-N-{[3-({[(2,4,6-trimethylphenyl)amino]carbonyl}amino)-4-biphenylyl]carbonyl}-L-threonine]"
7,600 nM,"O=C(Nc1sc(-c2ccc(F)cc2)cc1C(=O)N[C@H](C(=O)O)C1CCCCC1)Nc1c(Cl)cccc1Cl [Example 419, (2S)-cyclohexyl({[2-({[(2,6-dichlorophenyl)amino]carbonyl}amino)-5-(4-fluorophenyl)-3-thienyl]carbonyl}amino)ethanoic acid]"
8,15 nM,"O=C(Nc1cc2ccccc2cc1C(=O)NC(C(=O)O)C1CCOCC1)Nc1c(Cl)cc(OC(F)(F)F)cc1Cl (stereo not shown) [Example 468, {[(3-{[({2,6-dichloro-4-[(trifluoromethyl)oxy]phenyl}amino)carbonyl]amino}-2-naphthalenyl)carbonyl]amino}(tetrahydro-2H-pyran-4-yl)acetic acid]"
9,2300 nM,"Cc1cccc(C)c1NC(=O)Nc1cc2ccccc2cc1C(=O)N[C@@H](Cc1cnc[nH]1)C(=O)O [Example 50, N-[3-({[(2,6-dimethylphenyl)amino]carbonyl}amino)-2-naphthoyl]-L-histidine trifluoroacetate]"
10,1 nM,"CCCOc1cc(C)c(NC(=O)Nc2cc3ccccc3cc2C(=O)N[C@H](C(=O)O)C2CCCCC2)c(C)c1 [Example 473, (2S)-cyclohexyl[({3-[({[2,6-dimethyl-4-(propyloxy)phenyl]amino}carbonyl)amino]-2-naphthalenyl}carbonyl)amino]ethanoic acid]"
11,700 nM,"Cc1cccc(C)c1NC(=O)Nc1cc(F)ccc1C(=O)N[C@H](C(=O)O)C1CCCCC1 [Example 190, (2S)-Cyclohexyl({[2-({[(2,6-dimethylphenyl)amino]carbonyl}amino)-4-fluorophenyl]carbonyl}amino)ethanoic acid]"
12,17700 nM,"O=C(Nc1cc2ccccc2cc1C(=O)Nc1cscc1C(=O)O)Nc1c(Cl)cccc1Cl [Example 497, 4-({[3-({[(2,6-dichlorophenyl)amino]carbonyl}amino)-2-naphthalenyl]carbonyl}amino)-3-thiophenecarboxylic acid]"
13,4700 nM,"O=C(Nc1ccccc1Cl)Nc1cc2ccccc2cc1C(=O)N[C@@H](Cc1c[nH]c2ccccc12)C(=O)O [Example 58, N-[3-({[(2-chlorophenyl)amino]carbonyl}amino)-2-naphthoyl]-L-tryptophan trifluoroacetate]"
14,12200 nM,"COc1cc(NC(=O)Nc2c(C)cccc2Cl)c(C(=O)NC(C(=O)O)c2ccccc2)cc1OC (stereo not shown) [Example 107, {[2-({[(2-chloro-6-methylphenyl)amino]carbonyl}amino)-4,5-dimethoxybenzoyl]amino}(phenyl)acetic acid]"
15,41000 nM,"NC(=O)CC[C@H](NC(=O)c1cc2ccccc2cc1NC(=O)Nc1ccccc1Cl)C(=O)O [Example 32, N-[3-({[(2-chlorophenyl)amino]carbonyl}amino)-2-naphthoyl]-L-glutamine]"
16,2380 nM,"Cc1cc(C)c(NC(=O)Nc2sc3c(c2C(=O)N[C@@H](CC(=O)O)C(=O)O)CCCC3)c(C)c1 [Example 133, N-[(2-{[(mesitylamino)carbonyl]amino}-4,5,6,7-tetrahydro-1-benzothien-3-yl)carbonyl]-L-aspartic acid]"
17,21 nM,"Cc1cc(C2CC2)cc(C)c1NC(=O)Nc1cc(-c2cccc(F)c2)ccc1C(=O)N[C@H](C(=O)O)[C@@H](C)OC(C)(C)C [Example 530, N-{[3-({[(4-Cyclopropyl-2,6-dimethylphenyl)amino]carbonyl}amino)-3′-fluoro-4-biphenylyl]carbonyl}-O-(1,1-dimethylethyl)-L-threonine]"
18,5210 nM,"O=C(Nc1ccccc1Cl)Nc1cc2ccccc2cc1C(=O)N[C@@H](Cc1ccccc1)C(=O)O [Example 57, N-[3-({[(2-chlorophenyl)amino]carbonyl}amino)-2-naphthoyl]-L-phenylalanine]"
19,360 nM,"COc1cccc(-c2cc(C(=O)N[C@H](C(=O)O)C3CCCCC3)c(NC(=O)Nc3c(Cl)cccc3Cl)s2)c1 [Example 417, (2S)-cyclohexyl[({2-({[(2,6-dichlorophenyl)amino]carbonyl}amino)-5-[3-(methyloxy)phenyl]-3-thienyl}carbonyl)amino]ethanoic acid]"
20,2000 nM,"Cc1cccc(C)c1NC(=O)Nc1cc2ccccc2cc1C(=O)N[C@@H](CO)C(=O)O [Example 19, N-[3-({[(2,6-dimethylphenyl)amino]carbonyl}amino)-2-naphthoyl]-L-serine]"
21,2330 nM,"Cc1cccc(C)c1NC(=O)Nc1cc(C(F)(F)F)ccc1C(=O)N[C@H](C(=O)O)C1CCCCC1 [Example 178, (2S)-cyclohexyl({[2-({[(2,6-dimethylphenyl)amino]carbonyl}amino)-4-(trifluoromethyl)phenyl]carbonyl}amino)ethanoic acid]"

# Same assay, conditions: human liver glycogen phosphorylase a; table does not say whether with or without 10 mM glucose
row,IC50,Structure (SMILES)
1,9270 nM,"O=C(Nc1cc2ccccc2cc1C(=O)N1CCCC(C(=O)O)C1)Nc1c(Cl)cccc1Cl (stereo not shown) [Example 333, 1-{[3-({[(2,6-Dichlorophenyl)amino]carbonyl}amino)-2-naphthalenyl]carbonyl}-3-piperidinecarboxylic acid]"
2,810 nM,"Cc1cc(C)c(NC(=O)Nc2cc3ccccc3cc2C(=O)N2CCN(C(=O)OC(C)(C)C)C[C@H]2C(=O)O)c(C)c1 [Example 254, (2S)-4-{[(1,1-dimethylethyl)oxy]carbonyl}-1-{[3-({[(2,4,6-trimethylphenyl)amino]carbonyl}amino)-2-naphthalenyl]carbonyl}-2-piperazinecarboxylic acid]"
3,250 nM,"Cc1cc(Br)cc(C)c1NC(=O)Nc1cc2ccccc2cc1C(=O)NC1(C(=O)O)CCCCCC1 [Example 308, 1-({[3-({[(4-bromo-2,6-dimethylphenyl)amino]carbonyl}amino)-2-naphthalenyl]carbonyl}amino)cycloheptanecarboxylic acid]"
4,130 nM,"O=C(Nc1cc2ccccc2cc1C(=O)N[C@H](C(=O)O)C1CCCC1)Nc1c(Cl)cc(Cl)cc1Cl [Example 343, (2S)-cyclopentyl({[3-({[(2,4,6-trichlorophenyl)amino]carbonyl}amino)-2-naphthalenyl]carbonyl}amino)ethanoic acid]"
5,83 nM,"COc1ccc(-c2cnc(C(=O)N[C@H](C(=O)O)C3CCCCC3)c(NC(=O)Nc3c(C)cc(C)cc3C)c2)cc1 [Example 322, (2S)-Cyclohexyl({[5-[4-(methyloxy)phenyl]-3-({[(2,4,6-trimethylphenyl)amino]carbonyl}amino)-2-pyridinyl]carbonyl}amino)ethanoic acid]"
6,17 nM,"O=C(Nc1cc(-c2ccc(F)c(F)c2)ccc1C(=O)N[C@H](C(=O)O)C1CCCCC1)Nc1c(Cl)cc(OC(F)(F)F)cc1Cl [Example 212, (2S)-Cyclohexyl{[(3-{[({2,6-dichloro-4-[(trifluoromethyl)oxy]phenyl}amino)carbonyl]amino}-3′,4′-difluoro-4-biphenylyl)carbonyl]amino}ethanoic acid]"
7,6170 nM,"Cc1cc(C)c(NC(=O)Nc2cc3ccccc3cc2C(=O)NC2(C(=O)O)CCNCC2)c(C)c1 [Example 288, 4-({[3-({[(2,4,6-trimethylphenyl)amino]carbonyl}amino)-2-naphthalenyl]carbonyl}amino)-4-piperidinecarboxylic acid trifluoroacetate]"
